As a reminder, the TGI is the concentration giving total growth inhibition. A high value points to less potent growth arrest.

Some test systems named below: T-47D breast; ACHN renal; SR leukemia; MDA-N; NCI-H23 lung; MOLT-4 leukemia; PC-3 prostate; NCI-H226 lung; UACC-257 melanoma; SF-539 CNS.
Holding throughout (assay): DTP human tumour cell line panel, 48 h

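Compound exposure: 48 hours, 5 concentrations, 96-well plates. TGI: concentration producing complete growth inhibition.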 Some results are limits rather than exact numbers.

Take `COC(=O)C1C(C(=O)OC)C2(OC(c3ccc(Cl)cc3)=CC2=O)C12OC(c1ccc(Cl)cc1)=CC2=O` (stereo unspecified): the TGI worked out at 63.3 µM in the assay with T-47D breast; 39.4 µM with ACHN renal; 10.9 µM with SR leukemia; 47.3 µM in the assay with MDA-N; 52.2 µM with NCI-H23 lung; 49.2 µM in the assay on MOLT-4 leukemia. In addition, the concentration for total growth inhibition (TGI) is 55.8 µM with PC-3 prostate, above 100 µM in the assay with NCI-H226 lung, 48.8 µM in the assay on UACC-257 melanoma and 39.2 µM in the assay on SF-539 CNS.
As to `CSC(SC)=C(C(=O)O)P(=O)(O)O`, the TGI with T-47D breast, in the assay with ACHN renal, with SR leukemia, in the assay with MDA-N, in the assay with NCI-H23 lung and in the assay with MOLT-4 leukemia was above 100 µM in each case. Besides, the concentration for total growth inhibition (TGI) with PC-3 prostate, with NCI-H226 lung, with UACC-257 melanoma and in the assay on SF-539 CNS was above 100 µM each time.
Regarding `O=C1C=CC(=O)N1n1c(-c2ccccc2)n[nH]c1=O`, the total growth inhibition concentration (TGI) with T-47D breast, in the assay on SR leukemia, in the assay with MDA-N, in the assay with NCI-H23 lung, with MOLT-4 leukemia and in the assay on PC-3 prostate was above 100 µM each time. Moreover, the concentration for total growth inhibition (TGI) in the assay on NCI-H226 lung, in the assay with UACC-257 melanoma and with SF-539 CNS was above 100 µM in each case.
Take `O=[N+]([O-])c1ccc(NC(=S)N=Nc2c(O)[nH]c3ccc([N+](=O)[O-])cc23)cc1`: the TGI in the assay with T-47D breast is 63.1 µM; in the assay on ACHN renal, 74 µM; in the assay on SR leukemia it was above 100 µM; in the assay on MDA-N, 41.7 µM; with NCI-H23 lung, 41.1 µM; with MOLT-4 leukemia, above 100 µM. Also, the TGI was 49.3 µM with PC-3 prostate, 86.5 µM in the assay with NCI-H226 lung, 50.3 µM with UACC-257 melanoma and above 100 µM with SF-539 CNS.
In the case of `Cc1ccc2c(c1)-c1c(C#N)c(N)nc(-c3ccc(Cl)cc3)c1CCS2(=O)=O`, the TGI was above 100 µM with T-47D breast; above 100 µM in the assay with ACHN renal; 6.18 µM in the assay on SR leukemia; 8.88 µM with MDA-N; above 100 µM in the assay with NCI-H23 lung; 68.7 µM in the assay with MOLT-4 leukemia. Also, the TGI with PC-3 prostate is above 100 µM; with NCI-H226 lung it was above 100 µM; with UACC-257 melanoma, above 100 µM; in the assay with SF-539 CNS, 37.1 µM.
For the compound `C=C(C)OCOCCOC`, the TGI in the assay with T-47D breast, in the assay on ACHN renal, with SR leukemia, in the assay on MDA-N, with NCI-H23 lung and with MOLT-4 leukemia was above 100 µM in each case. For the same compound, the TGI with PC-3 prostate, with NCI-H226 lung, in the assay on UACC-257 melanoma and with SF-539 CNS was above 100 µM in each case.
As for `COc1ccc(/C=c2\s/c(=C3/SC(=S)N(c4ccccc4)C3=O)n(-c3ccccc3)c2=O)cc1`, the concentration for total growth inhibition (TGI) with T-47D breast was above 100 µM; with ACHN renal, 28.8 µM; in the assay with SR leukemia, 31.8 µM; in the assay on MDA-N it was above 100 µM; in the assay on NCI-H23 lung, above 100 µM; in the assay with MOLT-4 leukemia it was 72.8 µM. The TGI with PC-3 prostate and with SF-539 CNS was above 100 µM in each case.
Turning to `C[C@]12CCC(=O)[C@@H](CCC3=CC(=O)C=CC3=O)[C@@H]1CCC2=O`, the TGI with T-47D breast is above 81.7 µM; with ACHN renal, 32.5 µM; with SR leukemia, above 100 µM; with MDA-N, above 52.8 µM; in the assay with NCI-H23 lung, 38.2 µM; in the assay on MOLT-4 leukemia, above 100 µM. Besides, the total growth inhibition concentration (TGI) in the assay on PC-3 prostate worked out at 27.5 µM; in the assay on NCI-H226 lung, 57.3 µM; in the assay with UACC-257 melanoma, 39 µM; with SF-539 CNS, 35.7 µM.
Consider `O=c1c(Cc2ccc(Cl)cc2)nnc2sc(-c3ccc(-c4ccc(F)c(Cl)c4)o3)nn12`, for which the TGI in the assay with T-47D breast, with ACHN renal, in the assay on MDA-N, in the assay with NCI-H23 lung, with MOLT-4 leukemia and in the assay on PC-3 prostate was above 100 µM throughout. In addition, the TGI in the assay on NCI-H226 lung, in the assay with UACC-257 melanoma and in the assay with SF-539 CNS was above 100 µM each time.
For `CCC(CO)Nc1nc(NCc2ccccc2)c2ncn(C(C)C)c2n1` (stereo unspecified), the total growth inhibition concentration (TGI) with T-47D breast was above 100 µM; in the assay on ACHN renal it was above 100 µM; with SR leukemia, 19 µM; in the assay on MDA-N it was above 100 µM; in the assay on NCI-H23 lung, 36.1 µM; in the assay with PC-3 prostate, 37.1 µM. Further, the results for the TGI in the assay on NCI-H226 lung, with UACC-257 melanoma and in the assay on SF-539 CNS were 39.4 µM, above 94.7 µM and 26.4 µM, respectively.
Turning to `Cc1cc(S(=O)(=O)Nc2n[nH]c(-c3ccccn3)n2)c(S)cc1Cl`, the total growth inhibition concentration (TGI) in the assay on T-47D breast was 56.2 µM; in the assay with ACHN renal, 54.1 µM; in the assay on SR leukemia, above 100 µM; in the assay on MDA-N, above 100 µM; with MOLT-4 leukemia, above 100 µM; in the assay on PC-3 prostate it was above 100 µM. Also, the TGI was 30.5 µM in the assay with NCI-H226 lung, above 100 µM in the assay with UACC-257 melanoma and 54.3 µM with SF-539 CNS.
As to `O=c1nc2c(c(-c3ccc(Br)cc3)[nH]1)COC/C2=C\c1ccc(Br)cc1`, the TGI with T-47D breast, in the assay with ACHN renal, with MDA-N, in the assay on NCI-H23 lung, in the assay with MOLT-4 leukemia and with PC-3 prostate was above 50 µM throughout. Besides, the TGI with NCI-H226 lung, with UACC-257 melanoma and with SF-539 CNS was above 50 µM in each case.
Consider `C=C1OC(c2ccccc2NC)=NC12CCCCC2`, for which the total growth inhibition concentration (TGI) with T-47D breast, in the assay on ACHN renal, with MDA-N, in the assay on NCI-H23 lung, in the assay with MOLT-4 leukemia and in the assay with PC-3 prostate was above 100 µM each time. The TGI in the assay on NCI-H226 lung, in the assay on UACC-257 melanoma and in the assay with SF-539 CNS was above 100 µM throughout.
Take `OCCOCn1nncc1Cn1ncc2c(SCc3ccccc3)ncnc21`: the total growth inhibition concentration (TGI) is above 100 µM in the assay with T-47D breast; above 100 µM in the assay on ACHN renal; above 100 µM in the assay with MDA-N; above 100 µM in the assay with NCI-H23 lung; 34 µM in the assay with MOLT-4 leukemia; above 100 µM in the assay on PC-3 prostate. The concentration for total growth inhibition (TGI) in the assay on NCI-H226 lung, in the assay on UACC-257 melanoma and in the assay on SF-539 CNS was above 100 µM in each case.

For the origin of these results see PubChem BioAssay (NCI).
